System: PLD activity in T24 cells
Experiment: In vivo PLD activity in T24 bladder cancer cells
Type: cell-based, human
Conditions: honokiol 20 μM, 4 hr
Experimental: In FIG. 17A, T24 and Calu1 cells (obtained from the American Type Culture Collection) were plated in DMEM containing 10% serum for 48 hr and then shifted to either 10% serum or 0.5% serum overnight as indicated. Honokiol (20 μM) or control ethanol was then added for 4 hr as indicated. [^3H]-Myristate was added with the honokiol. After 4 hr, BtOH (0.7%) was added for 20 min, at which time the cells were harvested and the level of phosphatidyl-BtOH (P-Bt) was determined as in FIGS. 12A-C. The experiments shown are representative of at least two independent experiments. In FIG. 17B, T24 and Calu-1 cells were plated in DMEM with 10% serum for 48 hr then changed to DMEM containing either 10% or 0.5% serum overnight as indicated. […]
For in vivo PLD activity, cells were plated in 60 mm culture dishes in DMEM with 10% serum at a density that would allow them to grow to about 80% confluence after 2 days, then cells were shifted to DMEM containing 0.5% or 10% serum as indicated in the figure legends overnight. […] Briefly, PLD activity was measured by the release of [methyl-^3H] choline from [choline-methyl-^3H]dipalmitoyl-phosphatidylcholine. […] Free [methyl-^3H] choline was separated from precipitated lipids and proteins by centrifugation and was analyzed by liquid scintillation counting. […]

C=CCc1ccc(O)c(-c2ccc(O)c(CC=C)c2)c1 [honokiol, Honokiol]
stress-induced PLD activity (0.5% serum): suppressed | PLD activity observed in the presence of serum (10% serum): little effect
